Reference: PubChem BioAssay (NCI)
“And” between values parts separate entries of the source, which are not always exact repeats. Equal values may be shown once.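 In this assay, cells in 96-well plates receive the compound at five concentrations for 48 hours. Endpoints are linearly interpolated between the surrounding concentrations. GI50 is the concentration that inhibits growth by half. TGI is the concentration that stops growth completely.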

Tests used:
Assay in all cases: NCI anticancer screen, dose series, 48 h
786-0 renal = test system: 786-0 renal
A498 renal = test system: A498 renal
A549 NSCLC = test system: A549 NSCLC
ACHN renal = test system: ACHN renal
BT-549 breast = test system: BT-549 breast
CAKI-1 renal = test system: CAKI-1 renal
CCRF-CEM leukemia = test system: CCRF-CEM leukemia
COLO 205 colon = test system: COLO 205 colon
DU-145 prostate = test system: DU-145 prostate
EKVX NSCLC = test system: EKVX NSCLC
HCC-2998 colon = test system: HCC-2998 colon
HCT-116 colon = test system: HCT-116 colon
HCT-15 colon = test system: HCT-15 colon
HL-60(TB) leukemia = test system: HL-60(TB) leukemia
HOP-62 NSCLC = test system: HOP-62 NSCLC
HOP-92 NSCLC = test system: HOP-92 NSCLC
HS 578T breast = test system: HS 578T breast
HT29 colon = test system: HT29 colon
IGROV1 ovarian = test system: IGROV1 ovarian
K-562 leukemia = test system: K-562 leukemia
KM12 colon = test system: KM12 colon
LOX IMVI melanoma = test system: LOX IMVI melanoma
M14 melanoma = test system: M14 melanoma
MALME-3M melanoma = test system: MALME-3M melanoma
MCF7 breast = test system: MCF7 breast
MDA-MB-231 breast = test system: MDA-MB-231 breast
MDA-MB-435 = test system: MDA-MB-435
MOLT-4 leukemia = test system: MOLT-4 leukemia
NCI-H226 lung = test system: NCI-H226 lung
NCI-H23 lung = test system: NCI-H23 lung
NCI-H460 lung = test system: NCI-H460 lung
NCI-H522 lung = test system: NCI-H522 lung
NCI/ADR-RES ovarian = test system: NCI/ADR-RES ovarian
OVCAR-3 ovarian = test system: OVCAR-3 ovarian
OVCAR-4 ovarian = test system: OVCAR-4 ovarian
OVCAR-5 ovarian = test system: OVCAR-5 ovarian
OVCAR-8 ovarian = test system: OVCAR-8 ovarian
PC-3 prostate = test system: PC-3 prostate
RPMI-8226 leukemia = test system: RPMI-8226 leukemia
RXF 393 renal = test system: RXF 393 renal
SF-268 CNS = test system: SF-268 CNS
SF-295 CNS = test system: SF-295 CNS
SF-539 CNS = test system: SF-539 CNS
SK-MEL-2 melanoma = test system: SK-MEL-2 melanoma
SK-MEL-28 melanoma = test system: SK-MEL-28 melanoma
SK-MEL-5 melanoma = test system: SK-MEL-5 melanoma
SK-OV-3 ovarian = test system: SK-OV-3 ovarian
SN12C renal = test system: SN12C renal
SNB-19 CNS = test system: SNB-19 CNS
SNB-75 CNS = test system: SNB-75 CNS
SR leukemia = test system: SR leukemia
SW-620 colon = test system: SW-620 colon
T-47D breast = test system: T-47D breast
TK-10 renal = test system: TK-10 renal
U251 CNS = test system: U251 CNS
UACC-257 melanoma = test system: UACC-257 melanoma
UACC-62 melanoma = test system: UACC-62 melanoma
UO-31 renal = test system: UO-31 renal

## CC(C)c1cnn2c(NCc3ccccc3)cc(NC[C@H]3CCNC[C@@H]3O)nc12
786-0 renal
  GI50: 547 nM and 779 nM
  TGI: 12300 nM and 12200 nM
A498 renal
  GI50: 1630 nM and 2590 nM
  TGI: 4200 nM and 8150 nM
A549 NSCLC
  GI50: 342 nM and 272 nM
  TGI: 11900 nM and 7970 nM
ACHN renal
  GI50: 833 nM and 1550 nM
  TGI: 10500 nM and 9730 nM
BT-549 breast
  GI50: 1810 nM and 1270 nM
  TGI: 4400 nM and 3080 nM
CAKI-1 renal
  GI50: 472 nM and 1650 nM
  TGI: 9130 nM and 11400 nM
CCRF-CEM leukemia
  GI50: 310 nM and 672 nM
  TGI: 6010 nM and 14900 nM
COLO 205 colon
  GI50: 179 nM and 210 nM
  TGI: 476 nM and 749 nM
DU-145 prostate
  GI50: 400 nM and 309 nM
  TGI: 11400 nM and 9620 nM
EKVX NSCLC
  GI50: 861 nM and 645 nM
  TGI: 8200 nM and 6070 nM
HCC-2998 colon
  GI50: 534 nM and 645 nM
  TGI: 5550 nM and 3510 nM
HCT-116 colon
  GI50: 168 nM and 158 nM
  TGI: 10900 nM and 10800 nM
HCT-15 colon
  GI50: 2940 nM and 2690 nM
  TGI: 15200 nM and 12200 nM
HL-60(TB) leukemia
  GI50: 132 nM and 297 nM
  TGI: 584 nM and 1710 nM
HOP-62 NSCLC
  GI50: 225 nM and 348 nM
  TGI: 1330 nM and 3130 nM
HOP-92 NSCLC
  GI50: 242 nM and 1310 nM
  TGI: 4220 nM and 5540 nM
HS 578T breast
  GI50: 839 nM and 1380 nM
  TGI: 4630 nM and 5410 nM
HT29 colon
  GI50: 285 nM and 369 nM
  TGI: 10300 nM and 5730 nM
IGROV1 ovarian
  GI50: 252 nM and 279 nM
  TGI: 11000 nM and 10300 nM
K-562 leukemia
  GI50: 409 nM and 571 nM
  TGI: 11300 nM and > 100000 nM
KM12 colon
  GI50: 353 nM and 407 nM
  TGI: 3310 nM and 2500 nM
LOX IMVI melanoma
  GI50: 94.5 nM and 96.7 nM
  TGI: 1490 nM and 542 nM
M14 melanoma
  GI50: 586 nM and 688 nM
  TGI: 2250 nM and 2200 nM
MALME-3M melanoma
  GI50: 805 nM and 300 nM
  TGI: 2600 nM and 2720 nM
MCF7 breast
  GI50: 130 nM and 186 nM
  TGI: 4830 nM and 4030 nM
MDA-MB-231 breast
  GI50: 388 nM and 536 nM
  TGI: 7520 nM and 3670 nM
MDA-MB-435
  GI50: 343 nM and 578 nM
  TGI: 1740 nM and 2070 nM
MOLT-4 leukemia
  GI50: 361 nM and 504 nM
  TGI: 10200 nM and 14000 nM
NCI-H226 lung
  GI50: 766 nM and 725 nM
  TGI: 4010 nM and 5530 nM
NCI-H23 lung
  GI50: 463 nM
  TGI: 2980 nM
NCI-H460 lung
  GI50: 58.3 nM and 81.7 nM
  TGI: 1700 nM and 3310 nM
NCI-H522 lung
  GI50: 844 nM and 438 nM
  TGI: 2700 nM and 2430 nM
NCI/ADR-RES ovarian
  GI50: 15400 nM and 19700 nM
  TGI: 46900 nM and > 87500 nM
OVCAR-3 ovarian
  GI50: 489 nM and 707 nM
  TGI: 8660 nM and 4170 nM
OVCAR-4 ovarian
  GI50: 304 nM and 597 nM
  TGI: 2800 nM and 3620 nM
OVCAR-5 ovarian
  GI50: 312 nM and 575 nM
  TGI: 6720 nM and 5380 nM
OVCAR-8 ovarian
  GI50: 555 nM and 745 nM
  TGI: 11600 nM and 8680 nM
PC-3 prostate
  GI50: 363 nM and 587 nM
  TGI: 6730 nM and 10400 nM
RPMI-8226 leukemia
  GI50: 158 nM and 211 nM
  TGI: 1820 nM and 4140 nM
RXF 393 renal
  GI50: 352 nM and 1030 nM
  TGI: 1090 nM and 2830 nM
SF-268 CNS
  GI50: 402 nM and 648 nM
  TGI: 4630 nM and 2720 nM
SF-295 CNS
  GI50: 1150 nM and 508 nM
  TGI: 11100 nM and 9320 nM
SF-539 CNS
  GI50: 292 nM and 436 nM
  TGI: 1680 nM and 1430 nM
SK-MEL-2 melanoma
  GI50: 334 nM and 668 nM
  TGI: 1630 nM and 2150 nM
SK-MEL-28 melanoma
  GI50: 388 nM and 343 nM
  TGI: 2430 nM and 2410 nM
SK-MEL-5 melanoma
  GI50: 742 nM and 1190 nM
  TGI: 2350 nM and 3590 nM
SK-OV-3 ovarian
  GI50: 4710 nM and 3410 nM
  TGI: 15100 nM and 16500 nM
SN12C renal
  GI50: 327 nM and 378 nM
  TGI: 10500 nM and 6490 nM
SNB-19 CNS
  GI50: 495 nM and 611 nM
  TGI: 9760 nM and 8480 nM
SNB-75 CNS
  GI50: 515 nM and 1320 nM
  TGI: 2040 nM and 2830 nM
SR leukemia
  GI50: 48.1 nM and 62.3 nM
SW-620 colon
  GI50: 239 nM and 432 nM
  TGI: 10400 nM and 11000 nM
T-47D breast
  GI50: 472 nM and 898 nM
  TGI: 7580 nM and 9500 nM
TK-10 renal
  GI50: 1500 nM and 2270 nM
  TGI: 10400 nM and 10900 nM
U251 CNS
  GI50: 378 nM and 382 nM
  TGI: 10700 nM and 10400 nM
UACC-257 melanoma
  GI50: 656 nM and 716 nM
  TGI: 4780 nM and 5180 nM
UACC-62 melanoma
  GI50: 236 nM and 290 nM
  TGI: 1960 nM and 1920 nM
UO-31 renal
  GI50: 2000 nM and 2650 nM
  TGI: 11800 nM and 12000 nM
